Test results taken from patent US20140323500A1, “NADPH OXIDASE 4 INHIBITORS AND USE THEREOF” (GENKYOTEX SA, priority 2011, published 2014).

Legend:
[1] = molecular target: T1, human Nox4 (Homo sapiens, UniProt Q9NPH5); experiment: ROS production by membranes expressing human Nox4, cell-free Amplex Red assay; type: biochemical; conditions: cell-free membranes, Amplex Red; Cheng-Prusoff; average of at least three experiments in triplicate; read-out: Ki hNox4
T1 construct: expressed in transfected cells; host or cells: T-REx-293 (hNOX4 T-REx-293), tetracycline-induced; membrane fraction
T1 sequence (Q9NPH5 1-578): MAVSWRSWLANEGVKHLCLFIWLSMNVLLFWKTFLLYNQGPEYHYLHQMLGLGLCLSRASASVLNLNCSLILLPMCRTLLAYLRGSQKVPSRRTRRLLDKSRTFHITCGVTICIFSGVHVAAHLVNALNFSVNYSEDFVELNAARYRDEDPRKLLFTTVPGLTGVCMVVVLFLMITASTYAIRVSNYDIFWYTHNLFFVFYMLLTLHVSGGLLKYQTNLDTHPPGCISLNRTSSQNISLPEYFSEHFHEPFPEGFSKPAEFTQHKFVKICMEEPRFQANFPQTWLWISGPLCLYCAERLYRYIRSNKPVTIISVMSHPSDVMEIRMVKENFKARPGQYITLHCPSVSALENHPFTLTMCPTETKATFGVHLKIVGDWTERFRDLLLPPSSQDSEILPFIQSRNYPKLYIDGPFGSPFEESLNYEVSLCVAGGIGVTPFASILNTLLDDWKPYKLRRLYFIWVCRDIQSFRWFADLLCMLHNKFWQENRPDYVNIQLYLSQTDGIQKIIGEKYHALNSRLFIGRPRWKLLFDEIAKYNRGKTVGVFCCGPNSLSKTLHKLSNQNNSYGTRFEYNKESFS
T1 sequence (P13498 2-195 partner limits assumed): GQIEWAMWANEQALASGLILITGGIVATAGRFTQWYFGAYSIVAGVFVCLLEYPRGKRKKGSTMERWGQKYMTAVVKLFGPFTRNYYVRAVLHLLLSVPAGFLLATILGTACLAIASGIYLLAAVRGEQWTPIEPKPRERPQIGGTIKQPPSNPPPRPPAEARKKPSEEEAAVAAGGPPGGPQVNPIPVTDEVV
Description: (§1) The Nox4 activity of Nox4 inhibitors according to the invention may be tested for their activity in the inhibition or reduction of formation of reactive oxygen species (ROS) from oxygen in cell free assays. In order to fully characterise Nox4 inhibitors, Nox subunit-specific cell-free, membrane-based systems have been developed and specific recombinant proteins have been added to membranes heterologously over-expressing their specific iso form. Nox enzymes produce superoxide (O2.−) as primary product, however due to the high instability and reactivity of this molecule which dismutates naturally into hydrogen peroxide (H2O2), therefore, read-out techniques involving probes that do measure H2O2 were used (e.g. using Amplex Red as a probe in order to facilitate consistent and accurate measurements). The activity of the compounds is tested in the following cell free assay using the techniques described here below:
Transfected T-REx™-CHO cells (R718-07) purchased from Invitrogen and T-REx™-293 cell line expressing hNOX4 (hNOX4 T-REx™-293) (Serrander et al., 2007, Biochem. J., 406, 105-114) were cultured in […]. Both media were supplemented with 10% FBS, 2 mM glutamine, penicillin (100 U/ml) and streptomycin (100 μg/ml). Selection pressure was maintained by continuous inclusion of blasticidin (5 μg/ml), and/or G418 (0.25 mg/ml), and/or Hygromycin (0.25 mg/ml) and/or zeocin (0.025 mg/ml).
(§2) Human Nox1, Nox2, Nox4, and Nox5 expression were induced with Tetracycline (1 μg/ml) during 24 h prior to the membrane preparation Membranes from transfected cells overexpressing Nox1, Nox2, Nox4 or Nox5 were prepared as previously described in Palicz et al., 2001, J. Biol. Chem., 76, 3090-3097. After resuspension in sonication buffer (11% sucrose, 120 mM NaCl, 1 mM EGTA in PBS, pH 7.4 for Nox4- or NOX5-expressing cells) or in relax buffer (10 mM Pipes, 3 mM NaCl, 3.5 mM MgCl2, 0.1M KCl, pH 7.4), cells were broken by sonication and centrifuged (200 g, 10 min). The supernatant was layered onto a 17/40% (w/v) discontinuous sucrose gradient and centrifuged (150,000×g for 60 min). Membrane fractions were collected from the 17/40% interface and were stored at −80° C. Protein concentration was determined with the Bradford reagent.
(§3) Reactive Oxygen Species (ROS) production by membranes expressing either human Nox1, or human Nox2 or human Nox4 or human Nox5 or by xanthine/xanthine oxidase were measured using the Amplex Red (AR) method following a slightly modified version of the manufacturer's instruction manual (Invitrogen). Briefly, membranes or xanthine were incubated in PBS with Amplex Red, Horse Radish Peroxidase (HRP) and appropriated co-factors. ROS production was induced by addition of NADPH to NOX-expressing membrane or by addition of xanthine to xanthine oxidase. Non-specific signal was measured in the absence of membranes or in the absence of xanthine.
Antagonist activity of compounds was measured in the presence of increasing concentrations ranging from 1 nM to 100 μM. After an incubation of 20 min in a plate shaker and incubator (Titramax 1000, VWR) at 37° C. with weak agitation (300 rpm), ROS levels were measured for 10 min in a BMG Fluostar microplate reader with excitation and emission wavelengths of 544 nm and 590 nm respectively.
Data were analysed using Prism (GraphPad Software Inc., San Diego, Calif.). Ki values were calculated using the Cheng-Prusoff equation and represent the average of at least three individual experiments performed in triplicate (Table 1). Nox4 inhibition was compared to that measured for Simvastatin (Enzo Life Sciences, CAS Number 79902-63-9) using the method described in Example 1. Reactive Oxygen Species (ROS) production by membranes expressing human Nox4 was measured using the Amplex Red (AR).

[2] = molecular target: T2, human Nox2 (Homo sapiens, UniProt P04839); experiment: ROS production by membranes expressing human Nox2, cell-free Amplex Red assay; type: biochemical; conditions: cell-free membranes, Amplex Red; Cheng-Prusoff; average of at least three experiments in triplicate; read-out: Ki hNox2
T2 construct: host or cells: T-REx-CHO (hNOX2 T-REx-CHO), tetracycline-induced; membrane fraction
T2 sequence (P04839 2-570 limits assumed): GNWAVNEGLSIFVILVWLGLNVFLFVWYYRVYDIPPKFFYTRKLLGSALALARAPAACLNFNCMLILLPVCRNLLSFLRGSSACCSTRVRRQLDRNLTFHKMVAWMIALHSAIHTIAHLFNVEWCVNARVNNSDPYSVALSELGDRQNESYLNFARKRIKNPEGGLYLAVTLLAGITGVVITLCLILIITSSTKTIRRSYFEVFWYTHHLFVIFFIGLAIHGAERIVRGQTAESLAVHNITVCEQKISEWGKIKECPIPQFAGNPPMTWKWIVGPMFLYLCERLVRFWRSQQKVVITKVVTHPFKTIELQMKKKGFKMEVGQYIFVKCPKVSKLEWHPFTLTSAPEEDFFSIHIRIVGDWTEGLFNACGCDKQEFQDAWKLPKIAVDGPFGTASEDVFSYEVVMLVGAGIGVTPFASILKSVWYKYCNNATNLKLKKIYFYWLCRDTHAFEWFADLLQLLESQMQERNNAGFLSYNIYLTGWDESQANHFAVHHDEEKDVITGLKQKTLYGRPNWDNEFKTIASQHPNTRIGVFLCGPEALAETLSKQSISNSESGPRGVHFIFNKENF
T2 sequence (P13498 2-195 partner limits assumed): T1 sequence (P13498 2-195 partner limits assumed)
Description: as §1
Human Nox1 (NM_007052.4), human NOX2 (NM_000397), and human NOX5 (NM_0245052244) cDNAs were cloned into the pcDNA5/TO (Invitrogen). Human p22 (NM_000101.2) was cloned into pcDNA3.1/Zeo (+) (Invitrogen), and human NOXA1 (AY255769.1) and human NOXO1 (AB097667) were cloned into the bi-cistronic pVITRO1-neo-mcs plasmid (Invivogen).
Cells were transfected by using the FuGENE 6 method. Cells stably expressing functional human Nox1 (hNOX1 T-REx™-CHO) were obtained by co-transfecting T-REx™-CHO cells with human Nox1, human p22, human NOXA1 and human NOXO1. Cells stably expressing functional human Nox2 (hNOX2 T-REx™-CHO) were obtained by co-transfecting T-REx™-CHO cells with human nox2, human p22 and human cofactors. Cells stably expressing functional human Nox5 (hNOX5 T-REx™-CHO) were obtained by transfecting T-REx™-CHO cells with human Nox5. Co-transfected cells were selected with the appropriate antibiotics for 10 days. For the selection, hygromycin and G418 were used at 2 mg/ml and zeocin at 0.1 mg/ml. For the establishment of each stably transfected cell line, a pool of antibiotic-resistant cells was generated. Cells were cloned by limiting dilution. Several clones were established and investigated for ROS production upon tetracycline-induced hNox expression using a cellular AR assay. The expression of NOXes was done with tetracycline (1 μg/ml) during 24 h prior to the assay.
as §2, §3
Antagonist activity of compounds was measured in the presence of increasing concentrations ranging from 1 nM to 100 μM. […]

Row | Compound | Ki [1] | Ki [2]
1 | O=c1c2c(-c3ccc(Cl)cc3)n(Cc3ccncc3)c(=O)cc2[nH]n1-c1ccccc1Cl [(18), 2-(2-chlorophenyl)-4-(4-chlorophenyl)-5-(pyridin-4-ylmethyl)-1H-pyrazolo[4,3-c]pyridine-3,6(2H,5H)-dione] | 89 nM | 810 nM
2 | O=c1c2c(-c3ccc(Cl)cc3F)n(Cc3ccncc3)c(=O)cc2[nH]n1-c1ccccc1Cl [(19), 4-(4-chloro-2-fluorophenyl)-2-(2-chlorophenyl)-5-(pyridin-4-ylmethyl)-1H-pyrazolo[4,3-c]pyridine-3,6(2H,5H)-dione] | 91 nM | 640 nM
3 | COc1ccc(-c2c3c(=O)n(-c4ccccc4Cl)[nH]c3cc(=O)n2Cc2cccnc2)c(F)c1 [(21), 2-(2-chlorophenyl)-4-(2-fluoro-4-methoxyphenyl)-5-(pyridin-3-ylmethyl)-1H-pyrazolo[4,3-c]pyridine-3,6(2H,5H)-dione] | 96 nM | 555 nM
4 | COc1ccc(-c2c3c(=O)n(-c4ccccc4OC)[nH]c3cc(=O)n2Cc2ccn(C)n2)c(F)c1 [(22), 4-(2-fluoro-4-methoxyphenyl)-2-(2-methoxyphenyl)-5-[(1-methyl-1H-pyrazol-3-yl)methyl]-1H-pyrazolo[4,3-c]pyridine-3,6(2H,5H)-dione] | 98 nM | 925 nM
5 | O=c1c2c(-c3ccc(Cl)cc3)n(Cc3cccnc3)c(=O)cc2[nH]n1-c1ccccc1Cl [(25), 2-(2-chlorophenyl)-4-(4-chlorophenyl)-5-(pyridin-3-ylmethyl)-1H-pyrazolo[4,3-c]pyridine-3,6(2H,5H)-dione] | 100 nM | 2180 nM
6 | O=c1c2c(-c3ccccc3F)n(Cc3ccncc3)c(=O)cc2[nH]n1-c1ccccc1Cl [(29), 2-(2-chlorophenyl)-4-(2-fluorophenyl)-5-(pyridin-4-ylmethyl)-1H-pyrazolo[4,3-c]pyridine-3,6(2H,5H)-dione] | 111 nM | 655 nM
7 | Cc1c2c(=O)n(-c3ccccc3Cl)[nH]c2cc(=O)n1Cc1ccn(C)n1 [(30), 2-(2-chlorophenyl)-4-methyl-5-[(1-methyl-1H-pyrazol-3-yl)methyl]-1H-pyrazolo[4,3-c]pyridine-3,6(2H,5H)-dione] | 111 nM | 1060 nM
8 | O=c1c2c(-c3ccccc3F)n(Cc3ccccn3)c(=O)cc2[nH]n1-c1ccccc1Cl [(34), 2-(2-chlorophenyl)-4-(2-fluorophenyl)-5-(pyridin-2-ylmethyl)-1H-pyrazolo[4,3-c]pyridine-3,6(2H,5H)-dione] | 119 nM | 640 nM

Continued by falling Ki [1], values first:

Row | Ki [1] | Ki [2] | Compound
9 | 125 nM | 1160 nM | O=c1c2c(-c3ccc(Cl)cc3)n(Cc3nccs3)c(=O)cc2[nH]n1-c1ccccc1Cl [(36), 2-(2-chlorophenyl)-4-(4-chlorophenyl)-5-(1,3-thiazol-2-ylmethyl)-1H-pyrazolo[4,3-c]pyridine-3,6(2H,5H)-dione]
10 | 119 nM | 665 nM | O=c1c2c(-c3cc(F)ccc3F)n(Cc3ccncc3)c(=O)cc2[nH]n1-c1ccccc1Cl [(35), 2-(2-chlorophenyl)-4-(2,5-difluorophenyl)-5-(pyridin-4-ylmethyl)-1H-pyrazolo[4,3-c]pyridine-3,6(2H,5H)-dione]
11 | 114 nM | 1830 nM | CNc1cccc(-c2c3c(=O)n(-c4ccccc4Cl)[nH]c3cc(=O)n2C)c1 [(32), 2-(2-chlorophenyl)-5-methyl-4-[3-(methylamino)phenyl]-1H-pyrazolo[4,3-c]pyridine-3,6(2H,5H)-dione]
12 | 108 nM | 590 nM | COc1ccc(-c2c3c(=O)n(-c4ccccc4Cl)[nH]c3cc(=O)n2Cc2ccncc2)c(F)c1 [(27), 2-(2-chlorophenyl)-4-(2-fluoro-4-methoxyphenyl)-5-(pyridin-4-ylmethyl)-1H-pyrazolo[4,3-c]pyridine-3,6(2H,5H)-dione]
13 | 105 nM | 565 nM | COc1cc(Cn2c(-c3ccc(Cl)cc3F)c3c(=O)n(-c4ccccc4Cl)[nH]c3cc2=O)ccn1 [(26), 4-(4-chloro-2-fluorophenyl)-2-(2-chlorophenyl)-5-[(2-methoxypyridin-4-yl)methyl]-1H-pyrazolo[4,3-c]pyridine-3,6(2H,5H)-dione]
